Source: patent publication US9409952B2, “Peptide-compound cyclization method” (Chugai Seiyaku Kabushiki Kaisha, priority 2011, dated 2016)
Positions of bridges follow the written chain, without caps; N, C: chain ends. Non-standard residues stand in square brackets, D forms with d. Residues, ends and D or L forms follow the SMILES beside them. *: point of attachment. NMeF = CN[C@@H](Cc1ccccc1)C(=O)O; NMeI = CC[C@H](C)[C@H](NC)C(=O)O; NMeL = CN[C@@H](CC(C)C)C(=O)O; NMeV = CN[C@H](C(=O)O)C(C)C; NMeA = CN[C@@H](C)C(=O)O; Piperidide = C1CCN(*)CC1; Sar = CNCC(=O)O; tBu = CC(C)(C)*

What was measured:
[1] = Stability of aminoacylated pdCpA in buffers and on storage (LC-MS); format: physicochemical; conditions: for % by LC-MS during StBu deprotection: 250 μM Compound 2n-A, 50 mM Tris-HCl pH 7, 10 mM DTT
Protocol: The side chain StBu of pdCpA-Cys was deprotected using the precursor Compound 2n-A, and the following experiment was carried out to examine stability of the deprotected Compound 2e-A. The side chain was deprotected at room temperature under the conditions of 250 μM of Compound 2n-A, 50 mM Tris-HCl buffer, pH 7, and 10 mM DTT, and the time course of the deprotection was observed by LC-MS (SQD). The intended Compound 2e-A was not observed, and pdCpA resulting from hydrolysis of pdCpA-Cys was observed. After 5 minutes, Compound 2n-A was 51%, Compound 2e-A was 0%, and pdCpA was 49%. After 2 hours, deprotection was completed and Compound 2n-A was 0%, but Compound 2e-A was 0% and all hydrolized so that pdCpA was 100% (FIG. 13).
Stability of Compound 2n-A with the SH group of Cys protected was evaluated. Storage samples were prepared under five conditions as shown in the following Table 2 were prepared, respectively, and analyzed by LC-MS.
Stability of Compound 2n-B with the SH group of MeCys protected was also evaluated. Storage samples were prepared under four conditions as shown in the following Table 3 were prepared and analyzed by LC-MS.

in vivo = conditions: male, C57BL/6J, mouse, 20 mg/kg
[2] = Metabolic stability in human hepatic microsome; format: in vitro ADME; conditions: human, microsomes, pH 7.4, CL NADPH(+)
[3] = PAMPA (parallel artificial membrane permeability assay); format: in vitro ADME; conditions: PAMPA, pH 6.5
How it was run: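 Artificial membrane was 10% (w/v) egg lecithin plus 0.5% (w/v) cholesterol in dodecane on a PVDF filter. A 10 mM DMSO stock was added at 0.5% (v/v) to donor buffer (50 mM MOPSO, pH 6.5, 5.0% glycocholic acid). After 18 h at 37 °C, LC/MS or LC/UV gave donor and acceptor levels for Pe.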

[4] = pdCpA-MeCys(StBu): In AcONa buffer, 1 mM, pH 5, room temperature, 5 hours
[5] = pdCpA-MeCys(StBu): In DMSO, 5 mM, pH 4, 0° C., 1 day
[6] = pdCpA-MeCys(StBu): In HEPES buffer, 1 mM, pH 7, room temperature, 1 hour
[7] = pdCpA-MeCys(StBu): In Tris buffer, 1 mM, pH 7, room temperature, 1 hour
[8] = room temperature, after 5 minutes
[9] = room temperature, after 2 hours
[10] = In AcONa buffer, 1 mM, pH 5, room temperature, 1 hour
[11] = In DMSO, 5 mM, pH 4, 0° C., 2.5 days
[12] = In HEPES buffer, 1 mM, pH 7, room temperature, 1 hour
[13] = Stored as solid, room temperature, 16 days

| Structure (SMILES) | % remaining by LC-MS [1, 4] [%] | % remaining by LC-MS [1, 5] [%] | % remaining by LC-MS [1, 6] [%] | % remaining by LC-MS [1, 7] [%] | % by LC-MS during StBu deprotection [1, 8] [%] | % by LC-MS during StBu deprotection [1, 9] [%] | % remaining by LC-MS [1, 10] [%] | AUC (in vivo; iv) [µg·h/mL] | C0 (in vivo; iv) [µg/mL] | Vd (in vivo; iv) [L/kg] | clearance (in vivo; iv) [L/h/kg] | half-life (in vivo; iv) [h] | AUC (in vivo; po) [µg·h/mL] | CL/F (in vivo; po) [L/h/kg] | Cmax (in vivo; po) [µg/mL] | Tmax (in vivo; po) [h] | bioavailability (in vivo; po) [%] | half-life (in vivo; po) [h] | microsomal CLint at 1 uM [2] [µL/min/mg] | Papp at 18 hours, 50 µM [3] [nm/s] | further results |
| --- | --- | --- | --- | --- | --- | --- | --- | --- | --- | --- | --- | --- | --- | --- | --- | --- | --- | --- | --- | --- | --- |
| CC[C@H](C)[C@H]1C(=O)N[C@@H](COC(C)(C)C)C(=O)N(C)[C@@H](Cc2ccccc2)C(=O)N(C)[C@@H](C(C)C)C(=O)N[C@H](C(=O)N2CCCCC2)CC(=O)N(C)[C@@H](C)C(=O)N(C)[C@@H](Cc2ccccc2)C(=O)N[C@@H](CC(C)C)C(=O)N(C)[C@@H](CC(C)C)C(=O)N[C@@H]([C@@H](C)O)C(=O)N(C)CC(=O)N1C [DP-47] ([NMeA][NMeF]L[NMeL]T[Sar][NMeI]S(tBu)[NMeF][NMeV]D-Piperidide; lactam N-11) | – | – | – | – | – | – | – | 202 | 107 | 0.381 | 0.0996 | 2.68 | 38 | 0.532 | 4.49 | 2.67 | 18.8 | 3.88 | 37 | 500 | – |
| CC(C)C[C@H]1C(=O)N2CCC[C@H]2C(=O)N(C)[C@@H](CC(C)C)C(=O)N[C@@H](C)C(=O)N(C)[C@@H](C(C)C)C(=O)N[C@H](C(=O)N2CCCCC2)CC(=O)N(C)[C@@H](C)C(=O)N[C@@H]([C@@H](C)O)C(=O)N(C)CC(=O)N(C)[C@@H](Cc2ccccc2)C(=O)N(C)[C@@H](Cc2ccccc2)C(=O)N1C [DP-67] ([NMeA]T[Sar][NMeF][NMeF][NMeL]P[NMeL]A[NMeV]D-Piperidide; lactam N-11) | – | – | – | – | – | – | – | 70.7 | 102 | 0.431 | 0.284 | 3.25 | 10.9 | 2.27 | 2.31 | 3.5 | 15.5 | 4.36 | 15 | 230 | – |

Further lines, with some results ahead:

| % remaining by LC-MS [1, 4] [%] | % remaining by LC-MS [1, 5] [%] | % remaining by LC-MS [1, 6] [%] | % remaining by LC-MS [1, 7] [%] | % by LC-MS during StBu deprotection [1, 8] [%] | % by LC-MS during StBu deprotection [1, 9] [%] | % remaining by LC-MS [1, 10] [%] | Structure (SMILES) | AUC (in vivo; iv) [µg·h/mL] | C0 (in vivo; iv) [µg/mL] | Vd (in vivo; iv) [L/kg] | clearance (in vivo; iv) [L/h/kg] | half-life (in vivo; iv) [h] | AUC (in vivo; po) [µg·h/mL] | CL/F (in vivo; po) [L/h/kg] | Cmax (in vivo; po) [µg/mL] | Tmax (in vivo; po) [h] | bioavailability (in vivo; po) [%] | half-life (in vivo; po) [h] | microsomal CLint at 1 uM [2] [µL/min/mg] | Papp at 18 hours, 50 µM [3] [nm/s] | further results |
| --- | --- | --- | --- | --- | --- | --- | --- | --- | --- | --- | --- | --- | --- | --- | --- | --- | --- | --- | --- | --- | --- |
| 100 | 100 | 49 | 35 | – | – | – | CN[C@@H](CSSC(C)(C)C)C(=O)O[C@H]1[C@@H](O)[C@H](n2cnc3c(N)ncnc32)O[C@@H]1COP(=O)(O)O[C@H]1C[C@H](n2ccc(N)nc2=O)O[C@@H]1COP(=O)(O)O [pdCpA-MeCys(StBu), (2R)-(2R,3S,4R,5R)-2-((((((2R,3S,5R)-5-(4-amino-2-oxopyrimidin-1(2H)-yl)-2-((phosphonooxy)methyl)tetrahydrofuran-3-yl)oxy)(hydroxy)phosphoryl)oxy)methyl)-5-(6-amino-9H-purin-9-yl)-4-hydroxytetrahydrofuran-3-yl 3-(tert-butyldisulfanyl)-2-(methylamino)propanoate] | – | – | – | – | – | – | – | – | – | – | – | – | – | – |
| – | – | – | – | 51 | 0 | 70 | CC(C)(C)SSC[C@H](N)C(=O)O[C@H]1[C@@H](O)[C@H](n2cnc3c(N)ncnc32)O[C@@H]1COP(=O)(O)O[C@H]1C[C@H](n2ccc(N)nc2=O)O[C@@H]1COP(=O)(O)O [Compound 2n-A, (2R)-(2R,3S,4R,5R)-2-((((((2R,3S,5R)-5-(4-amino-2-oxopyrimidin-1(2H)-yl)-2-((phosphonooxy)methyl)tetrahydrofuran-3-yl)oxy)(hydroxy)phosphoryl)oxy)methyl)-5-(6-amino-9H-purin-9-yl)-4-hydroxytetrahydrofuran-3-yl 2-amino-3-(tert-butyldisulfanyl)propanoate] | – | – | – | – | – | – | – | – | – | – | – | – | – | % remaining by LC-MS [1, 11]: 58%; % remaining by LC-MS [1, 12]: 30%; % remaining by LC-MS [1, 13]: 64% |
| 0 | 0 | 51 | 65 | 49 | 100 | 30 | Nc1ccn([C@H]2C[C@H](OP(=O)(O)OC[C@H]3O[C@@H](n4cnc5c(N)ncnc54)[C@H](O)[C@@H]3O)[C@@H](COP(=O)(O)O)O2)c(=O)n1 [pdCpA, ((2R,3S,5R)-5-(4-amino-2-oxopyrimidin-1(2H)-yl)-3-(((((2R,3S,4R,5R)-5-(6-amino-9H-purin-9-yl)-3,4-dihydroxytetrahydrofuran-2-yl)methoxy)(hydroxy)phosphoryl)oxy)tetrahydrofuran-2-yl)methyl dihydrogenphosphate, reference compound] | – | – | – | – | – | – | – | – | – | – | – | – | – | % remaining by LC-MS [1, 11]: 42%; % remaining by LC-MS [1, 12]: 70%; % remaining by LC-MS [1, 13]: 36% |
